Measurements from patent publication US20090209587A1, “REPAGLINIDE FORMULATIONS” (priority 2008, published 2009).

Columns and labels:
[1] = Bulk/tapped density (USP Test 616), compressibility index and particle size distribution of repaglinide; type: physicochemical
Description: The percentages of particles with different sizes that exist in a total powder is the particle size distribution. It is represented in certain ways. Particle size is the maximum dimension of a particle, frequently expressed in μm. Particle size distributions can be expressed in terms of, D10, D50, D90 and D[4,3]. The D10, D50 and D90 represent the 10th, median or the 50th percentile, and the 90th percentile of the particle size distribution, respectively, as measured by volume. That is, the D10, D50, D90 are values of the distribution such that 10%, 50%, or 90% of the particles have a volume of this value or less, or is the percentage of particles smaller than that size. D50 is also known as median diameter of particle. It is one of the important parameters representing characteristics of particles of powders. For a sample, if D50=5 μm, it means that 50% of the particles are smaller than 5 μm. Similarly if D10=5 μm, 10% of the particles are less than or equal to 5 μm, and if D90=5 μm, 90% of the particles have sizes less than or equal to 5 μm. D[4,3] represents the volume moment mean of the particles, or the volume weighted particle size. Densities were determined according to USP Test 616 “Bulk Density and Tapped Density,” and compressibility index is percentage change in volume induced by tapping a sample of fixed mass.

[2] = cited from earlier work

Particle size distribution D10 [1]: 2 μm
Particle size distribution D50 [1]: <4 μm
Particle size distribution D90 [1]: <7 μm
Bulk density ([1]; USP Test 616): 0.176 g/mL
Tapped density ([1]; USP Test 616): 0.247 g/mL
Compressibility index ([1]; percentage change in volume induced by tapping): 29.95
SMILES: CCOc1cc(CC(=O)N[C@@H](CC(C)C)c2ccccc2N2CCCCC2)ccc1C(=O)O [Repaglinide, S-(+)-2-Ethoxy-4-(2((3-methyl-1-(2-(1-piperidinyl)phenyl)butyl)amino)2-oxoethyl) benzoic acid]
solubility in methanol ([2]; methanol): freely soluble
solubility in methylene chloride ([2]; methylene chloride): freely soluble
solubility in water ([2]; water): practically insoluble
